Results reported in ChEMBL document CHEMBL5252552, “Defined concatenated α6α1β3γ2 GABAA receptor constructs reveal dual action of pyrazoloquinolinone allosteric modulators” (Bioorg Med Chem, 2019).

Tests used:
Format in all cases: cell-based
[1] = biological target: T1, Gamma-aminobutyric acid receptor subunit alpha-1/alpha-6/beta-3/gamma-2 (Rattus norvegicus) (UniProt P18508+P30191+P62813+P63079); assay: Positive allosteric modulation of rat recombinant GABAA gamma2beta3alpha1-beta3alpha6 receptor expressed in Xenopus laevis oocytes assessed as maximal efficacy at -80 mV holding potential at 300 nM in presence of GABA EC1 to 1.5 by two-electrode voltage-clamp assay; details: Oocyte, filed as positive allosteric modulator
[2] = biological target: Gamma-aminobutyric acid receptor subunit alpha-1/beta-3/gamma-2 (Rattus norvegicus) (UniProt P18508+P62813+P63079); assay: Positive allosteric modulation of rat recombinant GABAA alpha1beta3alpha1-gamma2beta3 receptor expressed in Xenopus laevis oocytes assessed as maximal efficacy at -80 mV holding potential at 10 nM in presence of GABA EC1 to 1.5 by two-electrode voltage-clamp assay; details: Oocyte
[3] = biological target: T1, Gamma-aminobutyric acid receptor subunit alpha-1/alpha-6/beta-3/gamma-2 (Rattus norvegicus); assay: Positive allosteric modulation of rat recombinant GABAA alpha6beta3alpha1-gamma2beta3 receptor expressed in Xenopus laevis oocytes assessed as maximal efficacy at -80 mV holding potential at 10 nM in presence of GABA EC1 to 1.5 by two-electrode voltage-clamp assay; details: Oocyte

Compound COc1ccc(-n2nc3c4ccc(Br)cc4[nH]cc-3c2=O)cc1 has an Efficacy [1] of 48%, an Efficacy [2] of 1% and an Efficacy [3] of 2%.
